Target: Intestinal-type alkaline phosphatase (Mus musculus, UniProt P24822)
Test: PubChem AID 488785

Intestinal-type alkaline phosphatase, sequence (P24822 whole entry, looked up): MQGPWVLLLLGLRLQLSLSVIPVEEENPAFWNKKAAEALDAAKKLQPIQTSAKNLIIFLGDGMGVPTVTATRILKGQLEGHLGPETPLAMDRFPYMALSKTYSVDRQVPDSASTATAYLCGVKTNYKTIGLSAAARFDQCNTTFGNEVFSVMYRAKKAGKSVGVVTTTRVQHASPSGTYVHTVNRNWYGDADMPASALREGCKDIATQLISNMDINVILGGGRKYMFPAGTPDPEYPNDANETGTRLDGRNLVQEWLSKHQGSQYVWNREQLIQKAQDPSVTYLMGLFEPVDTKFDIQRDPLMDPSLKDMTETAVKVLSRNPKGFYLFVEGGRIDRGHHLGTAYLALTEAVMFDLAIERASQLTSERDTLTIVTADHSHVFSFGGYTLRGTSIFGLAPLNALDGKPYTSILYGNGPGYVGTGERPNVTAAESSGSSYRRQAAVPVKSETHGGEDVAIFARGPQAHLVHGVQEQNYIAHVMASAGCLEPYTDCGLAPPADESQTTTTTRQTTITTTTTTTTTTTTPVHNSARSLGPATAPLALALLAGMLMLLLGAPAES

SMILES	IC50
Oc1ccc(CN=Nc2cc(N3CCCC3)nc(N3CCCC3)n2)cc1O [(4Z)-4-[[2-(2,6-dipyrrolidin-1-ylpyrimidin-4-yl)hydrazinyl]methylidene]-2-hydroxycyclohexa-2,5-dien-1-one]	1.51 µM
CC1NON=C1C(=O)NN=CC1=CC(=O)C(=O)C=C1 (stereo unspecified) [4-Methyl-furazan-3-carboxylic acid (3,4-dihydroxy-benzylidene)-hydrazide]	9.92 µM
NS(=O)(=O)c1cc(C(=O)NNC2=c3ccccc3=NC2=O)ccc1Cl [2-chloro-5-[[(2-oxoindol-3-yl)amino]carbamoyl]benzenesulfonamide]	42.4 µM
Nc1nnc(CC(=O)N/N=C/C2C=C([N+](=O)[O-])C=C(Br)C2=O)s1 (stereo unspecified) [2-(5-azanyl-1,3,4-thiadiazol-2-yl)-N'-[(E)-(5-bromanyl-3-nitro-6-oxidanylidene-cyclohexa-2,4-dien-1-ylidene)methyl]ethanehydrazide]	2.79 µM
C#CCOCCOCCOCCNc1nc(N2CCN(C(=O)CCCCCCCCCCNC(=O)Cn3cc(CCCCCN)nn3)CC2)nc(N2CCN(C(=O)CCCCCCCCCCNC(=O)Cn3cc(C[C@@H](C)O)nn3)CC2)n1 [KG-TG]	6.31 µM
COc1cc(C=CC(=O)CC(=O)C=Cc2ccc(O)cc2)ccc1O [demethoxycurcumin]	8.38 µM
Cc1ccc(/C=C2\SC(=S)N(/N=C/C3C=C([N+](=O)[O-])C=CC3=O)C2=O)o1 (stereo unspecified) [(5Z)-5-[(5-methylfuran-2-yl)methylidene]-3-[[(E)-(3-nitro-6-oxocyclohexa-2,4-dien-1-ylidene)methyl]amino]-2-sulfanylidene-1,3-thiazolidin-4-one]	61.9 µM
C#CCOCCOCCOCCNc1nc(N2CCN(C(=O)CCCCCCCCCCNC(=O)[C@@H](CCC(=O)O)n3cc(CCCCCN)nn3)CC2)nc(N2CCN(C(=O)CCCCCCCCCCNC(=O)[C@H]([C@@H](C)CC)n3cc(CCCCCN)nn3)CC2)n1 [KI-KE]	17.1 µM
Oc1ccc(C=Nn2c(O)csc2=S)c(O)c1O [3-[[(E)-[2,3-bis(oxidanyl)-4-oxidanylidene-cyclohexa-2,5-dien-1-ylidene]methyl]amino]-2-sulfanylidene-1,3-thiazolidin-4-one]	4.15 µM
C#CCOCCOCCOCCNc1nc(N2CCN(C(=O)CCCCCCCCCCNC(=O)[C@H]([C@@H](C)CC)n3cc(CCCCN=C(N)N)nn3)CC2)nc(N2CCN(C(=O)CCCCCCCCCCNC(=O)[C@@H]([C@H](C)O)n3cc(C)nn3)CC2)n1 [GT-RI]	0.366 µM
COc1cc(C=Nn2c(O)csc2=S)ccc1O [3-[[(E)-(3-methoxy-4-oxidanylidene-cyclohexa-2,5-dien-1-ylidene)methyl]amino]-2-sulfanylidene-1,3-thiazolidin-4-one]	2.2 µM
Cc1ccc(Cl)c2c1NC(=O)/C2=C1/NC(=S)NC1=O	0.206 µM

Second part, the molecule after the results:

IC50	SMILES
0.216 µM	O=C1C=CC(C=NNC(=S)Nc2ccccc2[N+](=O)[O-])C=C1O (stereo unspecified) [MLS000417596]
7.75 µM	O=C(Nn1c(O)csc1=S)C(=O)Nn1c(O)csc1=S [SMR000349781]
1.04 µM	O=C1C=CC(/C=C/c2nc(O)c([N+](=O)[O-])c(=O)[nH]2)C=C1O (stereo unspecified) [SMR000524347]
5.89 µM	C#CCOCCOCCOCCNc1nc(N2CCN(C(=O)CCCCCCCCCCNC(=O)[C@@H](CCSC)n3cc(CCO)nn3)CC2)nc(N2CCN(C(=O)CCCCCCCCCCNC(=O)[C@H]([C@@H](C)CC)n3cc(CCCCCN)nn3)CC2)n1 [MLS002153719]
